Source: ChEMBL document CHEMBL1146481, “Rediocides B-E, potent insecticides from Trigonostemon reidioides” (2004)

Tested on: Ctenocephalides felis
Assay: Insecticidal activity against Ctenocephalides felis by anti-flea artificial membrane feeding system
Assay type: functional

| Compound | LD90 [ppm] |
| --- | --- |
| CC(C)CC(=O)O[C@H]1/C=C/C=C/C(=O)O[C@H]2[C@@H](C)C[C@@H]3[C@]2(O)[C@H](O)[C@@]2(CO)O[C@H]2[C@H]2[C@H]4OC5(c6ccccc6)O[C@@H]([C@@H](C)[C@@]23O5)[C@@]4(O)[C@](C)(O)C[C@H]2CC[C@H]1[C@H]2C [REDIOCIDE A] | 0.25 |
| CC(C)CC(=O)O[C@H]1/C=C/C=C/C(=O)O[C@H]2[C@@H](C)C[C@@H]3[C@]2(O)[C@H](O)[C@@]2(CO)O[C@H]2[C@H]2[C@H]4OC5(c6ccccc6)O[C@@H]([C@@H](C)[C@@]23O5)[C@@]4(O)[C@](C)(O)CC2CCC1CC2 [REDIOCIDE B] | 0.25 |
| C[C@H]1[C@@H]2CC[C@@H]1[C@@H](OC(=O)c1ccccc1)/C=C/C=C/C(=O)O[C@H]1[C@@H](C)C[C@@H]3[C@]1(O)[C@H](O)[C@@]1(CO)O[C@H]1[C@H]1[C@H]4OC5(c6ccccc6)O[C@@H]([C@@H](C)[C@@]13O5)[C@@]4(O)[C@](C)(O)C2 [REDIOCIDE C] | 0.5 |
| C[C@@H]1[C@@H]2OC3(c4ccccc4)O[C@@H]4[C@@H]5[C@@H]6O[C@]6(C)[C@@H](O)[C@@]6(O)[C@@H](C[C@H](C)[C@@H]6OC(=O)/C=C/[C@@H]6O[C@H]6[C@H](OC(=O)c6ccccc6)C6CCC(CC6)C[C@@](C)(O)[C@@]42O)[C@]51O3 [REDIOCIDE D] | 0.25 |
| CC(C)CC(=O)O[C@H]1/C=C/C=C/C(=O)O[C@H]2CC[C@@H]3[C@]2(O)[C@H](O)[C@@]2(CO)O[C@H]2[C@H]2[C@H]4OC5(c6ccccc6)O[C@@H]([C@@H](C)[C@@]23O5)[C@@]4(O)[C@](C)(O)C[C@H]2CC[C@H]1[C@H]2C [REDIOCIDE E] | 0.5 |
